Measurements taken from US20230255943A1, “MMP-9 AND MMP-12 INHIBITION FOR TREATING SPINAL CORD INJURY OR RELATED INJURY TO NEUROLOGICAL TISSUE” (The University of Birmingham, priority 2020, published 2023).

Experiments:
[1] = system: mice with DC crush injury; assay: Tape removal test (sensory function) after DC injury in mice; type: in vivo, mouse
Description: Functional testing after DC lesion and treatment was carried out as described previously (N. D. Fagoe, C. L. Attwell, R. Eggers, L. Tuinenbreijer, D. Kouwenhoven, J. Verhaagen, M. R. Mason, Evaluation of Five Tests for Sensitivity to Functional Deficits following Cervical or Thoracic Dorsal Column Transection in the Rat. PLoS One 11, e0150141 (2016)).
Briefly, animals (n=18/group) were first trained to master traversing a horizontal ladder for 1 w before functional testing. Baseline parameters were established by performing tests at 2-3d before injury. Animals were then tested at 2d, 1 w, 2 w, 3 w, 4 w, 5 w and 6 w after DC injury+treatment. Experiments were performed by an observer masked to the treatment conditions in the same order and time of day with each test performed for 3 individual trials.
Tape removal test (sensory function): The tape removal test determines touch perception from the left hind paw. After holding animals with both hind-paws extended, the time it took for the animal to detect and remove a piece of tape of 15×15 mm (Kip Hochkrepp, Bocholt, Germany) affixed to the palm of the left hind-paw was recorded and used to calculate the mean sensing time.

[2] = system: mice with DC crush injury; assay: Immunohistochemistry of CD11b, CD68 and GFAP at lesion site; type: in vivo, mouse; details: immediate or delayed by 24 h
Source text: After killing animals by exposure to rising concentrations of CO2, mice were intracardially perfused with 4% formaldehyde (TAAB Laboratories, Berkshire, UK) in 0.1M phosphate buffered saline (PBS). The lesion site+5 mm either side were dissected out, post-fixed in 4% formaldehyde and subjected to a graded series of sucrose solutions for cryoprotection. Spinal cords were blocked in OCT mounting compound (TAAB laboratories), sectioned longitudinally at 15 μm-thick using a cryostat (Brights Instruments, Huntingdon, UK) before being collected on charged glass slides (ThermoFisher Scientific, Loughborough, UK) and kept at −20° C. until required. Slides were numbered consecutively and sections from the middle of the lesion site were chosen for all immunohistochemical analyses, as described by previously (Surey S, Berry M, Logan A, Bicknell R, Ahmed Z. Differential cavitation, angiogenesis and wound-healing responses in injured mouse and rat spinal cords. Neuroscience 2014; 275: 62-80).
Fluorescent immunohistochemistry was performed as described previously (S. Surey, M. Berry, A. Logan, R. Bicknell, Z. Ahmed, Differential cavitation, angiogenesis and wound-healing responses in injured mouse and rat spinal cords. Neuroscience 275, 62-80 (2014)). […] Laminin was detected at 4 weeks after DC injury and treatment using a rabbit polyclonal anti-laminin primary antibody (ab11575; 1:400 dilution, Abcam). Macrophages were detected with a rabbit polyclonal anti-CD68 antibody (ab1525212; 1:500 dilution, Abcam); microglia were detected using a rabbit polyclonal antibody to CD11b (ab128797, 1:500 dilution, Abcam); GFAP was detected using a polyclonal anti-GFAP antibody (SAB5700611, 1:400 dilution, Sigma) were all detected at 10 days after DC injury and treatment. Semaphorin-3A (Sema-3A) and chondroitin sulphate proteoglycan (CSPG) was detected using monoclonal anti-CS-56 antibody (C8035; 1:200 dilution, Sigma) at 7 days after injury. […] CTB labelled axons in the mouse were detected using a goat polyclonal anti-CTB antibody (#703; 1:1000 dilution, List Biological Labs) at 6 weeks after DC injury. […]

MMP-12 = target: T1, MMP-12 (Rattus norvegicus, UniProt Q63341); assay: MMP-12 activity after DC injury in rats; type: in vivo; details: oral
T1 construct: from tissue; host or cells: Sprague-Dawley rat spinal cord lesion site
Description: The efficacy of oral AZD3342 in the DC injury model in adult Sprague-Dawley rat was also assessed. Animals were divided into 6 groups: (1), Sham (control); (2), DC crush injury+Vehicle; (3), DC crush injury+15 mg/kg AZD3342; (4), DC crush injury+75 mg/kg […]; (5), DC crush injury+375 mg/kg AZD3342; and (6), DC crush injury+Melatonin. Animals were dosed twice daily with oral AZD3342 or vehicle with the experimenters masked to the treatment conditions. These experiments were performed with n=6 rats/group and repeated on 2-3 independent occasions (total n=12-18 rats/group/test).
The lesion site+3 mm either side for mouse (DC and CC SCI) and lesion site+5 mm either side for rat was dissected (n=6 mice/rats/group, 2 independent repeats, total n=12 mice/rats/group) and rapidly frozen in liquid N2 and stored at −80° C. until required. The enzymatic activity of MMP-9 and MMP-12 was determined in 96-well plates using the SensoLyte 520 MMP-9 and MMP-12 fluorimetric assay kit, according to the manufacturer's instructions (AnaSpec, Fremont, Calif., USA). Fluorescence intensity was measured using a Synergy H1 microplate reader (BioTek UK, Swindon, UK) at Ex/Em=490/520 nm.

T1 sequence (Q63341 102-465): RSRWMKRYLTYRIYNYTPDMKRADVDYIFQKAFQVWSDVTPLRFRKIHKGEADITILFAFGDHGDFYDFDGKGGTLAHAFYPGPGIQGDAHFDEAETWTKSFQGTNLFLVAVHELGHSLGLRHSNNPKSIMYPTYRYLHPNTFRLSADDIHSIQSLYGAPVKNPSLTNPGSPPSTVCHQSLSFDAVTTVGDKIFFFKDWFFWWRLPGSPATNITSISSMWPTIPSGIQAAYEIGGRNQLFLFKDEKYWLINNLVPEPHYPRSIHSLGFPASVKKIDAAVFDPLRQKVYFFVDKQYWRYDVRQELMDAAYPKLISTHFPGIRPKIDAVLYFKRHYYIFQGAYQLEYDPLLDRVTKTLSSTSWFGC

| SMILES | sensory function, 24-h delayed treatment ([1]; optimal doses, 24 h delay vs immediate) | improvement in sensory function ([1]; oral) | mean tape sensing and removal time ([1]; oral, by 3 weeks) | CD11b immunoreactivity at the lesion site [2] | CD68 immunoreactivity at the lesion site [2] | GFAP+ immunoreactivity at the lesion site [2] | MMP-12 activity (MMP-12) |
| --- | --- | --- | --- | --- | --- | --- | --- |
| C[C@]1(CS(=O)(=O)N2CC=C(C#Cc3cnc(C4CC4)nc3)CC2)NC(=O)NC1=O [AZD1236] | equally as effective as immediate delivery | 85% | indistinguishable from sham-treated groups | significantly reduced | significantly reduced | significantly reduced | – |
| C[C@]1(CS(=O)(=O)N2CCC(Oc3ccc(Cl)cn3)CC2)NC(=O)NC1=O [AZD3342, (5S)-5-[4-(5-chloro-pyridin-2-yloxy)-piperidine-1-sulfonylmethyl]-5-methylimidazolidine-2,4-dione] | – | – | – | – | – | – | significantly suppresses |
